Test results published in ChEMBL document CHEMBL2074126, “A functional assay for quantitation of the apparent affinities of ligands of P-glycoprotein in Caco-2 cells” (Pharm Res, 2001).
pKi: −log10 of the molar value.

Tests used:
[1] = target: T1, ATP-dependent translocase ABCB1 (Homo sapiens, UniProt P08183); test: TP_TRANSPORTER: inhibition of Taxol transepithelial transport (basal to apical) (Taxol: 0.8 uM, Probenecid: 1000 u) in Caco-2 cells; format: functional, cell-based
[2] = target: T1, ATP-dependent translocase ABCB1; test: TP_TRANSPORTER: inhibition of Taxol transepithelial transport (basal to apical) in Caco-2 cells; format: functional, cell-based

T1 sequence (P08183 whole entry): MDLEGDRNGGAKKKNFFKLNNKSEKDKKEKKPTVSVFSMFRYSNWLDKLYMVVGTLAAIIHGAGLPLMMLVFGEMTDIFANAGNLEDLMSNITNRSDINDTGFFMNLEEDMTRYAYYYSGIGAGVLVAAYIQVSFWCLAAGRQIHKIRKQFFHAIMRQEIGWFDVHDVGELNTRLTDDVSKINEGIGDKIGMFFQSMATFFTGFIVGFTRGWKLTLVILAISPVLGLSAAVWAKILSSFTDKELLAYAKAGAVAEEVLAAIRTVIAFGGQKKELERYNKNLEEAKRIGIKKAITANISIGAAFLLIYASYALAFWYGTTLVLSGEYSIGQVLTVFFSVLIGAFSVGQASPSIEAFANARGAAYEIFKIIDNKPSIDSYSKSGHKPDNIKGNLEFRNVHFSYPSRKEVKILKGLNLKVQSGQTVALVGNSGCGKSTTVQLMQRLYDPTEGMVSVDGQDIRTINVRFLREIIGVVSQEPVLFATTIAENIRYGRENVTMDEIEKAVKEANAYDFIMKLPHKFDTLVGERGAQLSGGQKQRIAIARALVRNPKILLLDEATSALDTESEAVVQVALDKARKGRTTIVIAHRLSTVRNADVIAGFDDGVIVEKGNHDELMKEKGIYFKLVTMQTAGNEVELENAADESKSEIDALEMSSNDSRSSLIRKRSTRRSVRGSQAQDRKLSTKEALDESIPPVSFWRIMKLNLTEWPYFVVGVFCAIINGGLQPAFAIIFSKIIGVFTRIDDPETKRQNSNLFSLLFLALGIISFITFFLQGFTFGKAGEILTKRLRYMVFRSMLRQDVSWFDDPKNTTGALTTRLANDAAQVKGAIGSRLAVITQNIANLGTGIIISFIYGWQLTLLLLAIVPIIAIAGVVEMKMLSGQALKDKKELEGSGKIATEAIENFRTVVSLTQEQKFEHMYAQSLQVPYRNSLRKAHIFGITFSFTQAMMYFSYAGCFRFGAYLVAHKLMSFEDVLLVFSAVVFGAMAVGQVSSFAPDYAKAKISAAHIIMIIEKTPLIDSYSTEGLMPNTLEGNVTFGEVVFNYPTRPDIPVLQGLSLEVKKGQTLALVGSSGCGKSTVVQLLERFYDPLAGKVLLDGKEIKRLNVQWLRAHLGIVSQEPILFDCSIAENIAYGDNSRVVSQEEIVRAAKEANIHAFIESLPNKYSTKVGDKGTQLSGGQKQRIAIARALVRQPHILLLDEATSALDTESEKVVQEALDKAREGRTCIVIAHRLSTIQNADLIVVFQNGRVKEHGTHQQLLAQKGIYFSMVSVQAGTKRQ

Activity [1]	pKi [2]	Structure (SMILES)
is not an inhibitor [-]		CCCN(CCC)S(=O)(=O)c1ccc(C(=O)O)cc1 [PROBENECID]
	5.07	COc1cccc2c1C(=O)c1c(O)c3c(c(O)c1C2=O)C[C@@](O)(C(=O)CO)C[C@@H]3O[C@H]1C[C@H](N)[C@H](O)[C@H](C)O1 [DOXORUBICIN]
	5.60	COc1cccc2c1C(=O)c1c(O)c3c(c(O)c1C2=O)C[C@@](O)(C(C)=O)C[C@@H]3O[C@H]1C[C@H](N)[C@H](O)[C@H](C)O1 [DAUNORUBICIN]
	3.50	CCN(CC)C(=O)Nc1ccc(OCC(O)CNC(C)(C)C)c(C(C)=O)c1 (centres undefined) [CELIPROLOL]
